# Experimental data taken from patent EP1650209A1, “Griseusin derivatives and their use as antitumor agents” (Oncotest GmbH, priority 2004, dated 2006).
# Tests used:
# Assay in all cases: Clonogenic assay, colony formation of tumor stem cells from xenografts
# Format in all cases: cell-based, human
# CXF 1103 = details: Colon, xenograft CXF 1103, colony formation
# Method: (§1) Using various human cancer xenografts in vitro, the concentrations of compound B which inhibit formation of tumor colonies of tumor stem cells by 50% (IC50) and 70% (IC70) are determined in a clonogenic assay. Specifically, each solid tumor of bladder cancer (BXF 1036 and BXF 1299), cervical cancer (CEXF 633 and CEXF 773), colic cancer (CXF 1103, CXF 158, CXF 1729, CXF 264 and CXF 280), gastric cancer (GXF 251 and GXF 97), head and neck cancer (HNXF 536), liver cancer (LIXF 575), non small cell lung cancer comprising adeno, squamous epithelium and large cell carcinoma (LXFA 1012, LXFA 289, LXFA 297, LXFA 526, LXFA 592, LXFA 629, LXFA 677, LXFE 409, LXFL 1072, LXFL 430LX and LXFL 529), small cell lung cancer (LXFS 650), mammary cancer (MAXF 1162, MAXF 1384, MAXF 401, MAXF 449, MAXF 574, MAXF 583, MAXF 713 and MAXF 857), melanoma (MEXF 1341, MEXF 462, MEXF 535 and MEXF 989), ovary cancer (OVXF 899), pancreatic cancer (PAXF 546 and PAXF 736), prostate cancer (DU-145 and PC3M), pleuramesothelioma (PXF 1752), renal cancer (RXF 1220, RXF 1393, RXF 393, RXF 631 and RXF 944LX), and sarcoma (SXF 1301 and SXF 463) engrafted on RPMI nu/nu thymus aplastic nude mice were explanted, disaggregated by mincing and enzymatic digestion for 50 minutes using 125 U/mL DNAse I, 41 U/mL collagenase IV, 100 U/ml hyaluronidase III, and 1 U/mL dispase I, and passed through sieves of 200 µm and 50 µm mesh size and washed twice with sterile PBS-buffer to remove cell aggregated from single cells. The clonogenic assay was performed in a 24 multiwell format. Each of the resulting single cell suspensions was added at a density of 2·10^4 to 6·10^4 cells per well to 0.2 ml of Iscove's Modified Dulbecco's Medium (IMDM) containing 20% fetal calf serum and 0.01% gentamicin supplemented with 0.4% (w/v) agar, and plated onto a bottom layer consisting of the same culture medium containing 0.75% (w/v) agar. After 24 hours IMDM containing 20% fetal calf serum and 0.01 % gentamicin, together with a test compound, was added there to. Then, the plate was incubated at 37°C for 10 to 20 days in a humidified atmosphere of air containing 7.5% CO2. Within this period, in vitro tumor growth led to the formation of colonies with a diameter of > 50µm. Colony counts were performed with an automatic image analysis system (OMNICON 3600). 24 hours prior to evaluation, vital colonies were stained with a vital staining dye. Therefore, 100 µl of a sterile aqueous solution of 2-(4-iodophenyl)-3-(4-nitrophenyl)-5-phenyltetrazolium chloride (1 mg/ml) were added to each well of the plate, and plates were incubated for 24 hours at 37°C in a humidified atmosphere of air containing 7.5% CO2. Inhibition of colony formation was expressed as test versus untreated control (T/C-value [%]). IC50 and IC70 values were determined by plotting compound concentration versus cell viability. Table 3: Inhibition of Colony Formation of Tumor Stem Cells by griseusin derivative B
# CXF 158 = details: Colon, xenograft CXF 158, colony formation
# Method: as §1
# GXF 251 = details: Stomach, xenograft GXF 251, colony formation
# Method: as §1
# LXFA 1012 = details: Lung, non small cell, xenograft LXFA 1012, colony formation
# Method: as §1
# LXFA 677 = details: Lung, non small cell, xenograft LXFA 677, colony formation
# Method: as §1
# LXFL 430LX = details: Lung, non small cell, xenograft LXFL 430LX
# Method: as §1
# MAXF 1384 = details: Breast, xenograft MAXF 1384, colony formation
# Method: as §1
# MAXF 583 = details: Breast, xenograft MAXF 583, colony formation
# Method: as §1
# PC3M = details: Prostate, xenograft PC3M
# Method: as §1
# RXF 1393 = details: Kidney, xenograft RXF 1393, colony formation
# Method: as §1
# RXF 393 = details: Kidney, xenograft RXF 393, colony formation
# Method: as §1
# RXF 631 = details: Kidney, xenograft RXF 631, colony formation
# Method: as §1
# SXF 463 = details: Sarcoma, xenograft SXF 463, colony formation
# Method: as §1
# LXFS 538 = details: Lung, small cell, xenograft LXFS 538, colony formation
smiles,measurement,setting,value
"C[C@@H]1CC(=O)[C@@H](O)[C@]2(O1)O[C@@H]1CC(=O)O[C@@H]1C1=C2C(=O)c2c(O)cccc2C1=O [Compound B, 4'-dehydro-deacetylgriseusin A]",IC50,CXF 1103,0.173 µg/mL
same,IC70,CXF 1103,0.529 µg/mL
same,IC50,CXF 158,0.126 µg/mL
same,IC70,CXF 158,0.358 µg/mL
same,IC50,GXF 251,0.333 µg/mL
same,IC70,GXF 251,0.677 µg/mL
same,IC50,LXFA 1012,0.442 µg/mL
same,IC70,LXFA 1012,0.631 µg/mL
same,IC50,LXFA 677,0.974 µg/mL
same,IC70,LXFA 677,8.063 µg/mL
same,IC50,LXFL 430LX,0.272 µg/mL
same,IC70,LXFL 430LX,0.468 µg/mL
same,IC50,MAXF 1384,0.606 µg/mL
same,IC70,MAXF 1384,0.750 µg/mL
same,IC50,MAXF 583,0.078 µg/mL
same,IC70,MAXF 583,0.195 µg/mL
same,IC50,PC3M,0.419 µg/mL
same,IC70,PC3M,0.818 µg/mL
same,IC50,RXF 1393,0.592 µg/mL
same,IC70,RXF 1393,0.769 µg/mL
same,IC50,RXF 393,0.150 µg/mL
same,IC70,RXF 393,0.212 µg/mL
same,IC50,RXF 631,0.517 µg/mL
same,IC70,RXF 631,0.719 µg/mL
same,IC50,SXF 463,0.235 µg/mL
same,IC70,SXF 463,0.334 µg/mL
same,IC50,LXFS 538,0.307 µg/mL
same,IC70,LXFS 538,0.502 µg/mL
